One test addresses AKT-3 (Homo sapiens, UniProt Q9Y243). In words: AKT-3 inhibition assay (standard coupled enzyme assay). The test is classed as biochemical. The conditions noted are these: 170 μM ATP, 200 μM peptide, 45 nM AKT, 30° C.
The next test has as its target T1, PDK-1 (Homo sapiens, UniProt O15530).
T1 sequence (O15530 1-556): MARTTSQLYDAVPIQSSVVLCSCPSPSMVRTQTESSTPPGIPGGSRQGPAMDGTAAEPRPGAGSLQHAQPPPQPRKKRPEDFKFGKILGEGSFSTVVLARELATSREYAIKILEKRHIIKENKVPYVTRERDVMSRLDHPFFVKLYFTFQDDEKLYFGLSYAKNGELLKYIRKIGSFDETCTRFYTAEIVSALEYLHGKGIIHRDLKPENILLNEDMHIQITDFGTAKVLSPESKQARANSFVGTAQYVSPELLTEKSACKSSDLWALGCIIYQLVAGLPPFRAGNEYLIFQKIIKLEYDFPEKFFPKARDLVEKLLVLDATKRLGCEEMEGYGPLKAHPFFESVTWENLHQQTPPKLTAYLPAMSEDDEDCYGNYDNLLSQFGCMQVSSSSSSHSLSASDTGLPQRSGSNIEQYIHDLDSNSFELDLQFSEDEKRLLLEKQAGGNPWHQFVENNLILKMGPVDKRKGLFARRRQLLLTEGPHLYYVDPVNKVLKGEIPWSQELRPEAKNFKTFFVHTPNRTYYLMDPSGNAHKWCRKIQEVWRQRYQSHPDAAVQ
In words: PDK-1 inhibition assay (radioactive-phosphate incorporation). The conditions noted are these: 40 μM ATP, 65 μM PDKtide, 25 nM PDK-1, 30° C. The test is classed as biochemical.

Experimental findings from patent publication US7041687B2, “Indazole compounds useful as protein kinase inhibitors” (Vertex Pharmaceuticals Incorporated, priority 2002, dated 2006) are described below.

Structures are written as SMILES. Values joined by “and” are separate entries in the source; they are usually repeats but may differ in a detail not shown here. Identical values can stand only once.

A word on the Ki: it is the equilibrium dissociation constant of an inhibitor or competing ligand from its target.

Sequence of AKT-3 (Q9Y243 whole entry): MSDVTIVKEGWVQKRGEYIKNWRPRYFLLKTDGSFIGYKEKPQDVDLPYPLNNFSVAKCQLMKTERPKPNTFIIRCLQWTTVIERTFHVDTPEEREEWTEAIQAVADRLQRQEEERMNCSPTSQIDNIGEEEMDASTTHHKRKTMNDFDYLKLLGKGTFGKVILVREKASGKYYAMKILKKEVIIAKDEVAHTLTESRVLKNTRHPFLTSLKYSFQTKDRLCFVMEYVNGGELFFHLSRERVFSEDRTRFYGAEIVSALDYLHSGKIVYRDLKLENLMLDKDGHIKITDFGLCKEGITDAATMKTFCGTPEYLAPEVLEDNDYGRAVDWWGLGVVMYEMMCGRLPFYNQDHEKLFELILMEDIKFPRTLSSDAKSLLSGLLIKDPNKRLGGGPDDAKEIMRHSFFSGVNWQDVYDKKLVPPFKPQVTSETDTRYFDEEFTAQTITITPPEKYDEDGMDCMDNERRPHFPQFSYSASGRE
Description for AKT-3: Assays were carried out in a mixture of 100 mM HEPES 7.5, 10 mM MgCl2, 25 mM NaCl, 1 mM DTT and 3% DMSO. Final substrate concentrations in the assay were 170 μM ATP (Sigma Chemicals) and 200 μM peptide (RPRAATF, American Peptide, Sunnyvale, Calif.). Assays were carried out at 30° C. and 45 nM AKT. Final concentrations of the components of the coupled enzyme system were 2.5 mM phosphoenolpyruvate, 300 μM NADH, 30 μg/ML pyruvate kinase and 10 μg/ml lactate dehydrogenase.
An assay stock buffer solution was prepared containing all of the reagents listed above, with the exception of AKT, DTT, and the test compound of interest. 55 μl of the stock solution was placed in a 96 well plate followed by addition of 2 μl of 1 mM DMSO stock containing the test compound (final compound concentration 30 μM). The plate was pre-incubated for about 10 minutes at 30° C. and the reaction initiated by addition of 10 μl of enzyme (final concentration 45 nM) and 1 mM DTF. Rates of reaction were obtained using a Molecular Devices SpectraMax Plus plate reader over a 15 minute read time at 30° C.

As for `NCCC(C(=O)Nc1cc(-c2ccccc2)c2[nH]ncc2c1)c1ccc(Cl)c(Cl)c1` (centres unmarked) [Compound I-150], the results for the Ki on AKT-3 and at PDK-1 were 1 to 10 µM and above 3 µM, respectively.

`NCCC(C(=O)Nc1ccc2[nH]nc(NC(=O)COc3ccccc3)c2c1)c1ccccc1` (centres unmarked) [Compound I-1051]: the Ki on AKT-3 was 1 to 10 µM; on PDK-1, above 3 µM.

In the case of `CC(=O)Nc1cccc(C(CCN)C(=O)Nc2ccc3[nH]ncc3c2)c1` (centres unmarked) [Compound I-111], the Ki at AKT-3 is 1 to 10 µM; on PDK-1, above 3 µM.

As to `NCCC(C(=O)Nc1ccc2[nH]nc(-c3cccc(Cl)c3)c2c1)c1ccc(Cl)c(Cl)c1` (centres unmarked) [Compound I-253], the Ki on AKT-3 and on PDK-1 was below 1 µM each time.

`N#Cc1cccc(Nc2n[nH]c3ccc(NC(=O)[C@H](CCN)c4ccccc4)cc23)c1` [Compound I-1054]: the Ki was below 1 µM on AKT-3; 1 to 3 µM and > 3 µM at PDK-1.

For `Cc1cccc(Nc2n[nH]c3ccc(NC(=O)C(CCN)c4ccccc4)cc23)c1` (centres unmarked) [Compound I-1038], the Ki on AKT-3 was in the range of 1 to 10 µM; at PDK-1, 1 to 3 µM.

Regarding `Cc1cccc(C(CCN)C(=O)Nc2ccc3[nH]ncc3c2)c1` (centres unmarked) [Compound I-112], the Ki was below 1 µM at AKT-3 and 1 to 3 µM at PDK-1.

Consider `NCCC(C(=O)Nc1ccc2[nH]nc(NC(=O)c3ccc4ccccc4c3)c2c1)c1ccc(Cl)c(Cl)c1` (centres unmarked) [Compound I-170], for which the Ki was below 1 µM at AKT-3 and 1 to 3 µM on PDK-1.

`NCC[C@@H](C(=O)Nc1ccc2[nH]nc(NC(=O)c3cccs3)c2c1)c1c(F)ccc(Cl)c1F` [Compound I-1045]: the Ki on AKT-3 and at PDK-1 was below 1 µM throughout.

Turning to `NCCC(C(=O)Nc1ccc2[nH]ncc2c1)c1cccc(OCc2ccccc2)c1` (centres unmarked) [Compound I-114], the Ki on AKT-3 is 1 to 10 µM; on PDK-1, above 3 µM.

In the case of `NCCC(C(=O)Nc1ccc2[nH]nc(NC(=O)Nc3cccc(Cl)c3)c2c1)c1ccc(Cl)c(Cl)c1` (centres unmarked) [Compound I-173], the Ki on AKT-3 and at PDK-1 was below 1 µM throughout.

Regarding `NCC[C@@H](C(=O)Nc1ccc2[nH]nc(-c3ccccc3)c2c1)c1ccccc1` [Compound I-1052], the Ki was 1 to 10 µM at AKT-3 and below 1 µM at PDK-1.

Regarding `N#Cc1cccc(Nc2n[nH]c3ccc(NC(=O)[C@@H](CCN)c4c(F)ccc(Cl)c4F)cc23)c1` [Compound I-1048], the figures for the Ki on AKT-3 and at PDK-1 were 1 to 10 µM and below 1 µM, respectively.

With `NCCC(C(=O)Nc1ccc2[nH]nc(Nc3cccc(F)c3)c2c1)c1ccc(Cl)c(Cl)c1` (centres unmarked) [Compound I-213], the values for the inhibition constant (Ki) on AKT-3 and on PDK-1 were below 1 µM and 1 to 3 µM, respectively.

With `NCC[C@H](C(=O)Nc1ccc2[nH]nc(NC(=O)c3cccs3)c2c1)c1c(F)ccc(Cl)c1F` [Compound I-1046], the Ki on AKT-3 and at PDK-1 was below 1 µM in each case.

In the case of `Cc1n[nH]c2ccc(NC(=O)CCC(NCc3ccccc3)c3ccccc3F)cc12` (centres unmarked) [Compound I-1024], on PDK-1, the Ki was above 3 µM.

As to `Cc1cccn(C(CCN)C(=O)Nc2ccc3[nH]nc(C)c3c2)c1=O` (centres unmarked) [Compound I-137], the Ki fell in the range of 1 to 10 µM at AKT-3 and 1 to 3 µM at PDK-1.

As for `COc1cccc(C(CCN)C(=O)Nc2ccc3[nH]nc(Nc4cccc(Cl)c4)c3c2)c1` (centres unmarked) [Compound I-1029], the Ki at PDK-1 was above 3 µM.

`NCC(C(=O)Nc1ccc2[nH]ncc2c1)c1cccc(Cl)c1F` (centres unmarked) [Compound I-257]: the Ki on AKT-3 was below 1 µM; at PDK-1 it was above 3 µM.

As to `N#Cc1ccc(-c2n[nH]c3ccc(NC(=O)C(CCN)c4ccccc4)cc23)cc1` (centres unmarked) [Compound I-259], the results for the Ki on AKT-3 and on PDK-1 were 1 to 10 µM and below 1 µM, respectively.

With `NCC[C@H](C(=O)Nc1ccc2[nH]nc(-c3ccccc3)c2c1)c1c(F)ccc(Cl)c1F` [Compound I-1057], the Ki on AKT-3 is 10 to 20 µM; on PDK-1, below 1 µM.

Consider `NCC[C@@H](C(=O)Nc1ccc2[nH]nc(NC(=O)c3cccs3)c2c1)c1ccccc1` [Compound I-1049], for which the Ki at AKT-3 and at PDK-1 was below 1 µM in each case.

Take `N#Cc1cccc(Nc2n[nH]c3ccc(NC(=O)[C@H](CCN)c4c(F)ccc(Cl)c4F)cc23)c1` [Compound I-1047]: the figures for the Ki at AKT-3 and on PDK-1 were below 1 µM and above 3 µM, respectively.

Take `NCCC(C(=O)Nc1cc(-c2ccccc2Cl)c2[nH]ncc2c1)c1ccc(Cl)c(Cl)c1` (centres unmarked) [Compound I-148]: the Ki on PDK-1 is above 3 µM.

For the compound `NCCC(C(=O)Nc1ccc2[nH]nc(NC(=O)Nc3ccccc3)c2c1)c1ccc(Cl)c(Cl)c1` (centres unmarked) [Compound I-176], the Ki at AKT-3 lay within 1 to 10 µM; at PDK-1 it was 1 to 3 µM.

`NCCC(C(=O)Nc1ccc2[nH]nc(NS(=O)(=O)c3ccccc3)c2c1)c1ccc(Cl)c(Cl)c1` (centres unmarked) [Compound I-190]: the values for the Ki at AKT-3 and on PDK-1 were 10 to 20 µM and above 3 µM, respectively.

In the case of `NCCC(C(=O)Nc1ccc2[nH]nc(C(=O)NCc3ccccc3)c2c1)c1ccccc1` (centres unmarked) [Compound I-1036], the Ki at PDK-1 was in the range of 1 to 3 µM.

Consider `NCCC(C(=O)Nc1ccc2[nH]nc(NC(=O)c3ccc4c(c3)OCO4)c2c1)c1ccc(Cl)c(Cl)c1` (centres unmarked) [Compound I-171], for which the Ki on AKT-3 and at PDK-1 was below 1 µM in each case.

Take `NCCC(C(=O)Nc1ccc2[nH]nc(-c3cccc(Cl)c3)c2c1)c1ccccc1` (centres unmarked) [Compound I-241]: the Ki at AKT-3 is 1 to 10 µM; at PDK-1, below 1 µM.

Regarding `Cc1cccc(Nc2n[nH]c3ccc(NC(=O)C(CCN)c4ccc(Cl)c(Cl)c4)cc23)c1` (centres unmarked) [Compound I-212], the Ki at AKT-3 is below 1 µM; at PDK-1 it was 1 to 3 µM.

For `COc1cccc(C(CCN)C(=O)Nc2ccc3[nH]nc(Nc4cccc(C#N)c4)c3c2)c1` (centres unmarked) [Compound I-1031], on PDK-1, the Ki is above 3 µM.

In the case of `CNc1n[nH]c2ccc(NC(=O)C(CCN)c3ccccc3OC)cc12` (centres unmarked) [Compound I-1019], the Ki at PDK-1 was above 3 µM.

In the case of `NCCC(C(=O)Nc1ccc2[nH]ncc2c1)c1cccc(O)c1` (centres unmarked) [Compound I-1007], on PDK-1, the Ki fell in the range of 1 to 3 µM.

Take `CC(=O)c1ccc(-c2n[nH]c3ccc(NC(=O)C(CCN)c4ccccc4)cc23)cc1` (centres unmarked) [Compound I-250]: the values for the Ki at AKT-3 and at PDK-1 were 1 to 10 µM and below 1 µM, respectively.

As to `NCCC(C(=O)Nc1ccc2[nH]nc(C(=O)Nc3ccccc3)c2c1)c1ccccc1` (centres unmarked) [Compound I-1040], the figures for the Ki at AKT-3 and at PDK-1 were 10 to 20 µM and 1 to 3 µM, respectively.

On to `CC(C)c1cccc(-c2n[nH]c3ccc(NC(=O)C(CCN)c4ccc(Cl)c(Cl)c4)cc23)c1` (centres unmarked) [Compound I-222], for which the Ki at AKT-3 is below 1 µM; at PDK-1, above 3 µM.

On to `NCCC(C(=O)Nc1ccc2[nH]nc(-c3cccc(OC(F)(F)F)c3)c2c1)c1ccccc1` (centres unmarked) [Compound I-239], for which, on PDK-1, the Ki lay within 1 to 3 µM.

For the compound `NCCC(C(=O)Nc1ccc2[nH]nc(-c3ccc(F)cc3)c2c1)c1ccccc1` (centres unmarked) [Compound I-1027], at PDK-1, the inhibition constant (Ki) was below 1 µM.

For `NCC[C@@H](C(=O)Nc1ccc2[nH]nc(-c3ccccc3)c2c1)c1c(F)ccc(Cl)c1F` [Compound I-1056], the figures for the Ki on AKT-3 and on PDK-1 were 1 to 10 µM and below 1 µM, respectively.

With `Cc1cccc(-c2n[nH]c3ccc(NC(=O)C(CCN)c4ccccc4)cc23)c1` (centres unmarked) [Compound I-238], the Ki at PDK-1 was below 1 µM.

Regarding `CC(=O)OC(C(=O)Nc1ccc2[nH]ncc2c1)c1ccccc1` (centres unmarked) [Compound I-1020], the Ki on PDK-1 was above 3 µM.

With `Cc1cccc(-c2n[nH]c3ccc(NC(=O)C(CCN)c4ccc(Cl)c(Cl)c4)cc23)c1` (centres unmarked) [Compound I-251], the Ki on AKT-3 and at PDK-1 was below 1 µM each time.

For the compound `NCCC(SCc1ccccc1)C(=O)Nc1ccc2[nH]ncc2c1` (centres unmarked) [Compound I-154], the Ki on AKT-3 was 1 to 10 µM; at PDK-1 it was above 3 µM.

Turning to `O=C(Cc1ccc(Cl)c(Cl)c1)Nc1ccc2[nH]ncc2c1` [Compound I-16], the Ki was 1 to 10 µM on AKT-3 and above 3 µM on PDK-1.

As for `NCCC(C(=O)Nc1ccc2[nH]nc(-c3cccc(-c4ccccc4)c3)c2c1)c1ccccc1` (centres unmarked) [Compound I-228], at PDK-1, the Ki was 1 to 3 µM.

Turning to `NCCC(C(=O)Nc1ccc2[nH]nc(NS(=O)(=O)c3cccc(Cl)c3)c2c1)c1ccc(Cl)c(Cl)c1` (centres unmarked) [Compound I-191], the results for the inhibitory constant (Ki) on AKT-3 and at PDK-1 were 1 to 10 µM and above 3 µM, respectively.

Regarding `COc1ccccc1C(CCN)C(=O)Nc1ccc2[nH]ncc2c1` (centres unmarked) [Compound I-1005], the results for the Ki at AKT-3 and at PDK-1 were below 1 µM and 1 to 3 µM, respectively.

As for `N#Cc1cccc(Nc2n[nH]c3ccc(NC(=O)[C@@H](CCN)c4ccccc4)cc23)c1` [Compound I-1055], the results for the Ki at AKT-3 and at PDK-1 were 1 to 10 µM and 1 to 3 µM, respectively.

As for `NCC(C(=O)Nc1ccc2[nH]ncc2c1)c1ccc(Cl)cc1F` (centres unmarked) [Compound I-258], the values for the Ki on AKT-3 and on PDK-1 were below 1 µM and above 3 µM, respectively.

In the case of `CC(C)c1cccc(-c2n[nH]c3ccc(NC(=O)C(CCN)c4ccccc4)cc23)c1` (centres unmarked) [Compound I-229], the Ki at PDK-1 was above 3 µM.

Turning to `COc1cccc(C(CCN)C(=O)Nc2ccc3[nH]nc(C)c3c2)c1` (centres unmarked) [Compound I-1018], the Ki on AKT-3 is 1 to 10 µM; on PDK-1, 1 to 3 µM.

In the case of `Cc1n[nH]c2ccc(NC(=O)C(CCN)c3ccsc3)cc12` (centres unmarked) [Compound I-1035], at PDK-1, the Ki is below 1 µM.

Turning to `NCCC(C(=O)Nc1ccc2[nH]nc(CNC(=O)c3ccccc3)c2c1)c1ccccc1` (centres unmarked) [Compound I-1042], at PDK-1, the Ki is above 3 µM.

Turning to `CC(=O)O[C@@H](C(=O)Nc1ccc2[nH]ncc2c1)c1ccccc1` [Compound I-33], the Ki at PDK-1 is above 3 µM.
